{"source": "patent USRE37770E1", "about": "“Treatment of skin conditions by use of PPARα activators” (The Regents of the University of California, priority 1997, dated 2002)", "key": {"[1]": {"test_system": "transglutaminase mRNA", "experiment": "Transglutaminase mRNA in keratinocytes by Northern Blot", "format": "cell-based, Human"}, "[2]": {"test_system": "involucrin mRNA", "experiment": "Involucrin mRNA in keratinocytes by Northern Blot", "format": "cell-based, Human"}, "[3]": {"test_system": "involucrin protein", "experiment": "Involucrin protein level in keratinocytes by Western Blot", "format": "cell-based, Human", "procedure": "Measurements of the level of the involucrin protein itself were performed in the culture medium by Western Blot. Various incubations were performed, in media containing clofibrate at concentrations ranging from 0 (vehicle only) to 400 μM and calcium ion at both 0.03 mM and 1.2 mM. The results are shown in FIG. 9a for tests with calcium ion at 0.03 mM, and in FIG. 9b for tests with calcium ion at 1.2 mM. In these figures, the protein contents are expressed as percents of the respective measurements taken from media incubated for the same period of time but in the absence of clofibrate.\nThe procedures of Example 8 were followed, and measurements were taken on the involucrin protein levels from cells incubated at various concentrations of farnesol and juvenile hormone III ranging from 0 (vehicle only) to 15 μM, in media containing 0.03 mM and 1.2 mM calcium ion, for 24 hours. The results are shown in FIG. 10 for farnesol and FIG. 11 for juvenile hormone III, in 0.03 mM Ca^++.\nProtein concentration was assessed by protein electrophoresis and Western blotting. Cells were lysed is 2% SDS and the lysate sonicated. Protein determinations were made by use of a Bicinchoninic add protein assay (Pierce Chemical Company, Rockford, Ill. USA). Following protein determination, equal amounts at protein (50 μg) were separated by electrophoresis an 7.5% polyacrylamide gels and electroblotted onto polyvinylidene […] membranes (0.2-μ, obtained from Bio-Rad Laboratories Hercules, Calif., USA). Involucrin protein was detected by incubation over-night at 4° C. C. with a polyclonal rabbit anti-human involucrin antibody (1:1000 dilution). The involucrin-specific bands on the autoradiograms were quantitated by densitometry by densitometry. Transglutaminase protein expression was measured in a similar mmaner, using stacking, sample and running buffers containing 4 M urea, and the gels following electrophoresis were washed in 4 M urea, 25 mM TRIS-HCl, pH 7.4, 7.5 mM NaCl, 0.1 mM dithiothreitol (DTT), and 2 mM ethylenediamine tetraacetic acid for 90 minutes prior to electoblotting, allowing the transglutaminase to be detected by antibody. Specific bands on the autoradiograms were quantified by densitometry."}, "[4]": {"test_system": "transglutaminase mRNA", "experiment": "Transglutaminase mRNA in keratinocytes by Northern Blot", "format": "cell-based, Human", "procedure": "(§1) Human keratinocyte cells were incubated in culture containing calcium at a concentration of 0.03 mM Ca^++ (a level that is too low to induce differentiation). Also included in the culture medium were clofibrate at 400 μM or ETYA at 10 μM and 20 μM, while separate cell cultures were maintained as controls with neither clofibrate nor ETYA. The production of mRNA for both involucrin and transglutaminase was measured at intervals over a 48-hour time period (0, 6, 12, 24, and 48 hours) by Northern Blot analysis. In each case, the lighter bars represent the control cells and the darker bars the cells incubated in the clofibrate-containing medium. The degree of mRNA generated is expressed as a percent of the control at zero hours.\n(§2) Human epidermis was isolated from newborn foreskins and keratinocytes were plated in serum-free keratinocyte growth medium (“KGM”; Clonetics, San Diego, Calif. USA), using conventional techniques. Cells were treated with either the test compounds in vehicle or vehicle alone (<0.1% ethanol) for 24 or 48 hours. The test compounds were obtained from Sigma Chemical Co. (St. Louis. Mo. USA) and were stored as 15 mM stock solutions at −20° C. Mevalonate was solubilized in sterile water.\n(§3) Total RNA was isolated by using TRIZOL (Sigma Chemical Co.), following the manufacturer's protocol. Ethanol-precipitate RNA pellets were suspended in sterile, diethylpyrocarbonate (DEPC)-treated water, and RNA was quantified by absorbance at 260 nm using the 260/280 nm ratio as an index of purity. RNA (15 μg per sample) was size fractionated through a 1% agarose gel containing 2.2 M formaldehyde. RNA integrity was visualized following acridine orange staining of the gel following electrophoresis. The RNA was transfered to a nylon membrane that was subsequently baked at 80° C. for 2 hours. Blots were hybridized with the appropriate ^32p-labeled probe overnight at 65° C. Washes were then performed in a solution containing 0.1% SSC and 0.1% sodium dedecyl sulfate (SDS) for 20 minutes at room temperature, followed by a 20-minute wash at 65° C. Autoradiography was performed at −70° C. Blots were probed with β-actin to confirm equal loading. Appropriate bands were quantified by densitometry.\n(§4) Northern blot analyses were performed on keratinocytes maintained in low calcium (0.03 mM) and incubated for 24 hours in the presence of vehicle alone (<0.1% ethanol) or vehicle containing 25-hydroxycholesterol (10 μM), 22(R)-hydroxycholesterol (10 μM) cholesterol (10 μM), or mevalonate (500 μM) (individually). The mRNA levels of involucrin (“INV”) and transglutaminase (“TG'ase”) are shown in the bar graph of FIG. 14a, the INV indicated by clear bars and the TG'ase by shaded bars, both with error limits shown.", "remark": "listed apart in the source"}, "[5]": {"test_system": "full-thickness flank skin from the fetal rats", "experiment": "Transepidermal water loss (TEWL) of fetal rat skin explants in organ culture (barrier function)", "format": "cell-based, Sprague-Dawley rats", "procedure": "Timed pregnant Sprague-Dawley rats (plug date=day 0) were obtained from Simonsen (Gilroy, Calif., USA) and fetuses were delivered prematurely on day 17. Transepidermal water loss (TEWL) was measured in excised full-thickness flank skin from the fetal rats after various times in culture. The skin explants were placed dermis-side down onto collagen membrane inserts (3μ pore size) in medium M-199 (serum-free), and submerged, and the lateral edges and dermal surface were sealed with petrolatum, such that water loss occurred only through the epidermal surface. Explant samples were weighed hourly, at ambient temperature (24±3° C.) and humidity (40±5%), over 6 hours using a Cahn balance (sensitivity 0.001 mg). TEWL levels are reported as milligrams of water lost per square millimeter of epidermal surface per hour. Fatty acids and clofibrate (p-chlorophenoxyisobutyric acid) were added to the medium bound to 0.5% (weight/volume) bovine serum albumin (BSA). Isoprenoids and oxysterols were added in ethanol (≦0.1%) and juvenile hormone III was added as a dimethylsulfoxide (DMSO) solution (≦0.1%). Control explants were incubated in the presence of the appropriate vehicle (≦0.1% DMSO or ethanol, and/or ≦0.5% BSA). Skin explants from gestational day 17 rats were incubated in the presence of either various activators or vehicle, and transepidermal water loss was measured after two days. The activators and the concentrations at which they were used were as follows: […]"}, "[6]": {"test_system": "involucrin mRNA", "experiment": "Involucrin mRNA in keratinocytes by Northern Blot", "format": "cell-based, Human", "procedure": "as §1, §2, §3, §4", "remark": "listed apart in the source"}, "[7]": {"test_system": "Normal human keratinocytes", "experiment": "Cornified envelope formation (35S incorporation) in keratinocytes", "format": "cell-based", "details": "48 hours; for increase in cornified envelope (CE) formation: 10 μM; for Cornified Envelope Formation (% of Control): control = 0.03 mM Ca++ vehicle, mean ± SEM"}, "[8]": {"details": "10 μM in the presence of mevalonate (10 μM), 24 hours"}, "[9]": {"details": "10 μM alone, 24 hours (Example 17)"}, "[10]": {"details": "low calcium (0.03 mM), 24 hours, 10 μM"}, "[11]": {"details": "1.2 mM Ca++, 400 μM, all time points relative to the controls"}, "[12]": {"details": "24 hours, 0 to 400 μM, in either 0.03 mM or 1.2 mM Ca++"}}, "note": "pEC50: −log10 of the molar value.", "data": [{"smiles": "C[C@H](CCCC(C)(C)O)[C@H]1CC[C@H]2[C@@H]3CC=C4C[C@@H](O)CC[C@]4(C)[C@H]3CC[C@]12C", "note": "[25-hydroxycholesterol]", "values": [{"measurement": "TG'ase mRNA level", "setting": "[1]; [8]", "value": "two-fold increase"}, {"measurement": "INV mRNA level", "setting": "[2]; [8]", "value": "two-fold increase"}, {"measurement": "increase in INV protein", "setting": "[3]; high calcium (1.2 mM), 15 μM", "value": 3.2, "unit": "fold"}, {"measurement": "INV protein level relative to the control", "setting": "[3]; low calcium (0.03 mM), 24 hours", "value": "approximately 1.7 fold"}, {"measurement": "TG'ase mRNA level", "setting": "[4]; [9]", "value": "two-fold increase"}, {"measurement": "transglutaminase (TG'ase) mRNA level compared to the vehicle alone", "setting": "[4]; [10]", "value": "approximate twofold increase"}, {"measurement": "effect on TEWL / barrier function", "setting": "[5]; 50 μM, two days", "value": "neither mevalonate at 200 μM, 25-hydroxy cholesterol at 50 μM), squalene at 50 μM, geranylgeraniol at 50 μM, cis-farnesol at 50 μM, nor nerolidol at 100 μM significantly affected barrier function"}, {"measurement": "INV mRNA level", "setting": "[6]; [9]", "value": "two-fold increase"}, {"measurement": "involucrin (INV) mRNA level compared to the vehicle alone", "setting": "[6]; [10]", "value": "approximate twofold increase"}, {"measurement": "increase in cornified envelope (CE) formation", "setting": "[7]; high calcium (1.2 mM)", "value": 1.75, "unit": "fold"}, {"measurement": "increase in cornified envelope (CE) formation", "setting": "[7]; low calcium (0.03 mM)", "value": 1.6, "unit": "fold"}]}, {"smiles": "CCOC(=O)C(C)(C)Oc1ccc(Cl)cc1", "note": "[clofibrate, 2-(4-chlorophenoxy)-2-methylpropanoic acid ethyl ester]", "values": [{"measurement": "transglutaminase mRNA level", "setting": "[1]; [11]", "value": "increased mRNA levels"}, {"measurement": "involucrin mRNA level", "setting": "[2]; [11]", "value": "increased mRNA levels"}, {"measurement": "involucrin protein content", "setting": "[3]; 0 to 400 μM, calcium ion at both 0.03 mM and 1.2 mM", "value": "substantial increases in the protein content"}, {"measurement": "transglutaminase mRNA level", "setting": "[4]; 0.03 mM Ca++, 400 μM, 0-48 hours, increase beginning at twelve hours", "value": "significantly increased levels"}, {"measurement": "dose dependency of transglutaminase mRNA level", "setting": "[4]; [12]", "value": "increase with increasing dosages"}, {"measurement": "pEC50", "setting": "[5]; Rattus norvegicus, dose response, FIGS. 4a-4c, read-out: concentration of half-maximal effect on barrier development (TEWL)", "value": "~3.60"}, {"measurement": "concentration of maximal effect on barrier development (TEWL)", "setting": "[5]; dose response, FIGS. 4a-4c", "value": "approximately 500 μM"}, {"measurement": "involucrin mRNA level", "setting": "[6]; 0.03 mM Ca++, 400 μM, 0-48 hours, increase beginning at six hours", "value": "significantly increased levels"}, {"measurement": "dose dependency of involucrin mRNA level", "setting": "[6]; [12]", "value": "increase with increasing dosages"}, {"measurement": "Cornified Envelope Formation (% of Control)", "setting": "[7]; Calcium 0.03 mM, Clofibrate 50 μM", "value": "121.4% ± 15.7 % of Control"}, {"measurement": "Cornified Envelope Formation (% of Control)", "setting": "[7]; Calcium 0.03 mM, Clofibrate 200 μM", "value": "321.3% ± 30.4 % of Control"}, {"measurement": "Cornified Envelope Formation (% of Control)", "setting": "[7]; Calcium 0.03 mM, Clofibrate 400 μM", "value": "386.8% ± 28.7 % of Control"}, {"measurement": "Cornified Envelope Formation (% of Control)", "setting": "[7]; Calcium 1.2 mM, Clofibrate 50 μM", "value": "458.9% ± 39.8 % of Control"}, {"measurement": "Cornified Envelope Formation (% of Control)", "setting": "[7]; Calcium 1.2 mM, Clofibrate 200 μM", "value": "529.3% ± 17.4 % of Control"}, {"measurement": "Cornified Envelope Formation (% of Control)", "setting": "[7]; Calcium 1.2 mM, Clofibrate 400 μM", "value": "581.9% ± 28.7 % of Control"}]}]}
